ChEMBL document CHEMBL3880386, “Combination comprising the MEK inhibitor N-{3-[3-cyclopropyl-5-(2-fluoro-4-iodo- phenylamino)-6,8-dimethyl-2,4,7-trioxo-3,4,6,7-tetrahydro-2H-pyrido[4,3-d]pyrimidin-1-yl]phenyl}acetamide and the Akt inhibitor N-{(1S)-2-amino-1-[(3-fluorophenyl)methyl]ethyl}-5-chloro-4-(4-chloro-1- …” (2014)

Legend:
[1] = (§1) Growth inhibition of human DLD1 cells at 1:10 molar ratio of compound in presence of N-{3-[3-cyclopropyl-5-(2-fluoro-4-iodo-phenylamino)-6,8-dimethyl- 2,4,7-trioxo-3,4,6,7-tetrahydro-2H-pyrido[4,3-d]pyrimidin-1-yl]phenyl}acetamide incubated for 72 hrs by Cell-titer-Glo reagent based assay; format: functional; settings: DLD-1, 72 h
[2] = Growth inhibition of human KM12 cells at 1:10 molar ratio of compound in presence of N-{3-[3-cyclopropyl-5-(2-fluoro-4-iodo-phenylamino)-6,8-dimethyl- 2,4,7-trioxo-3,4,6,7-tetrahydro-2H-pyrido[4,3-d]pyrimidin-1-yl]phenyl}acetamide incubated for 72 hrs by Cell-titer-Glo reagent based assay; format: functional; settings: KM12, 72 h
[3] = Growth inhibition of human COLO205 cells at 1:10 molar ratio of compound in presence of N-{3-[3-cyclopropyl-5-(2-fluoro-4-iodo-phenylamino)-6,8-dimethyl- 2,4,7-trioxo-3,4,6,7-tetrahydro-2H-pyrido[4,3-d]pyrimidin-1-yl]phenyl}acetamide incubated for 72 hrs by Cell-titer-Glo reagent based assay; format: functional; settings: COLO 205, 72 h
[4] = Growth inhibition of human NCI-H1355 cells at 1:10 molar ratio of compound in presence of N-{3-[3-cyclopropyl-5-(2-fluoro-4-iodo-phenylamino)-6,8-dimethyl- 2,4,7-trioxo-3,4,6,7-tetrahydro-2H-pyrido[4,3-d]pyrimidin-1-yl]phenyl}acetamide incubated for 72 hrs by Cell-titer-Glo reagent based assay; format: functional; settings: NCI-H1355, 72 h
[5] = Growth inhibition of human A427 cells at 1:10 molar ratio of compound in presence of N-{3-[3-cyclopropyl-5-(2-fluoro-4-iodo-phenylamino)-6,8-dimethyl- 2,4,7-trioxo-3,4,6,7-tetrahydro-2H-pyrido[4,3-d]pyrimidin-1-yl]phenyl}acetamide incubated for 72 hrs by Cell-titer-Glo reagent based assay; format: functional; settings: A-427, 72 h
[6] = Growth inhibition of human Calu3 cells at 1:10 molar ratio of compound in presence of N-{3-[3-cyclopropyl-5-(2-fluoro-4-iodo-phenylamino)-6,8-dimethyl- 2,4,7-trioxo-3,4,6,7-tetrahydro-2H-pyrido[4,3-d]pyrimidin-1-yl]phenyl}acetamide incubated for 72 hrs by Cell-titer-Glo reagent based assay; format: functional; settings: Calu-3, 72 h
[7] = as §1, with “HT-29” for “DLD1”, “cells assessed combination index” for “cells”; format: functional
[8] = (§2) Growth inhibition of human EFM19 cells at 1:10 molar ratio of compound in presence of N-{(1S)-2-amino-1-[(3-fluorophenyl)methyl]ethyl}-5-chloro-4-(4-chloro-1-methyl-1H-pyrazol-5-yl)-2-thiophenecar- boxamide incubated for 72 hrs by Cell-titer-Glo reagent based assay; format: functional; settings: EFM-19, 72 h
[9] = Growth inhibition of human T84 cells at 1:10 molar ratio of compound in presence of N-{(1S)-2-amino-1-[(3-fluorophenyl)methyl]ethyl}-5-chloro-4-(4-chloro-1-methyl-1H-pyrazol-5-yl)-2-thiophenecar- boxamide incubated for 72 hrs by Cell-titer-Glo reagent based assay; format: functional; settings: T84, 72 h
[10] = Growth inhibition of human COLO205 cells at 1:10 molar ratio of compound in presence of N-{(1S)-2-amino-1-[(3-fluorophenyl)methyl]ethyl}-5-chloro-4-(4-chloro-1-methyl-1H-pyrazol-5-yl)-2-thiophenecar- boxamide incubated for 72 hrs by Cell-titer-Glo reagent based assay; format: functional; settings: COLO 205, 72 h
[11] = Growth inhibition of human MV522 cells at 1:10 molar ratio of compound in presence of N-{(1S)-2-amino-1-[(3-fluorophenyl)methyl]ethyl}-5-chloro-4-(4-chloro-1-methyl-1H-pyrazol-5-yl)-2-thiophenecar- boxamide incubated for 72 hrs by Cell-titer-Glo reagent based assay; format: functional; settings: MV522, 72 h
[12] = Growth inhibition of human NCI-H1155 cells at 1:10 molar ratio of compound in presence of N-{(1S)-2-amino-1-[(3-fluorophenyl)methyl]ethyl}-5-chloro-4-(4-chloro-1-methyl-1H-pyrazol-5-yl)-2-thiophenecar- boxamide incubated for 72 hrs by Cell-titer-Glo reagent based assay; format: functional; settings: NCI-H1155, 72 h
[13] = Growth inhibition of human HOP62 cells at 1:10 molar ratio of compound in presence of N-{(1S)-2-amino-1-[(3-fluorophenyl)methyl]ethyl}-5-chloro-4-(4-chloro-1-methyl-1H-pyrazol-5-yl)-2-thiophenecar- boxamide incubated for 72 hrs by Cell-titer-Glo reagent based assay; format: functional; settings: HOP-62, 72 h
[14] = Growth inhibition of human SW900 cells at 1:10 molar ratio of compound in presence of N-{(1S)-2-amino-1-[(3-fluorophenyl)methyl]ethyl}-5-chloro-4-(4-chloro-1-methyl-1H-pyrazol-5-yl)-2-thiophenecar- boxamide incubated for 72 hrs by Cell-titer-Glo reagent based assay; format: functional; settings: SW900, 72 h
[15] = Growth inhibition of human HCC827 cells at 1:10 molar ratio of compound in presence of N-{(1S)-2-amino-1-[(3-fluorophenyl)methyl]ethyl}-5-chloro-4-(4-chloro-1-methyl-1H-pyrazol-5-yl)-2-thiophenecar- boxamide incubated for 72 hrs by Cell-titer-Glo reagent based assay; format: functional; settings: HCC827, 72 h
[16] = as §2, with “MDA-MB-175-VII” for “EFM19”, “cells assessed combination index” for “cells”; format: functional
[17] = Growth inhibition of human LS1034 cells assessed combination index at 1:10 molar ratio of compound in presence of N-{(1S)-2-amino-1-[(3-fluorophenyl)methyl]ethyl}-5-chloro-4-(4-chloro-1-methyl-1H-pyrazol-5-yl)-2-thiophenecar- boxamide incubated for 72 hrs by Cell-titer-Glo reagent based assay; format: functional, LS-1034
[18] = Growth inhibition of human HT-29 cells assessed combination index at 1:10 molar ratio of compound in presence of N-{(1S)-2-amino-1-[(3-fluorophenyl)methyl]ethyl}-5-chloro-4-(4-chloro-1-methyl-1H-pyrazol-5-yl)-2-thiophenecar- boxamide incubated for 72 hrs by Cell-titer-Glo reagent based assay; format: functional
[19] = Growth inhibition of human COR-L23 cells assessed combination index at 1:10 molar ratio of compound in presence of N-{(1S)-2-amino-1-[(3-fluorophenyl)methyl]ethyl}-5-chloro-4-(4-chloro-1-methyl-1H-pyrazol-5-yl)-2-thiophenecar- boxamide incubated for 72 hrs by Cell-titer-Glo reagent based assay; format: functional
[20] = Growth inhibition of human NCI-H1355 cells assessed combination index at 1:10 molar ratio of compound in presence of N-{(1S)-2-amino-1-[(3-fluorophenyl)methyl]ethyl}-5-chloro-4-(4-chloro-1-methyl-1H-pyrazol-5-yl)-2-thiophenecar- boxamide incubated for 72 hrs by Cell-titer-Glo reagent based assay; format: functional
[21] = Growth inhibition of human NCI-H1792 cells assessed combination index at 1:10 molar ratio of compound in presence of N-{(1S)-2-amino-1-[(3-fluorophenyl)methyl]ethyl}-5-chloro-4-(4-chloro-1-methyl-1H-pyrazol-5-yl)-2-thiophenecar- boxamide incubated for 72 hrs by Cell-titer-Glo reagent based assay; format: functional

Cn1ncc(Cl)c1-c1cc(C(=O)N[C@H](CN)Cc2cccc(F)c2)sc1Cl [AFURESERTIB] showed an IC50 [1] of 932 nM, an IC50 [2] of 104 nM and an IC50 [3] of 9 nM. The IC50 [4] was 268 nM, the IC50 [5] was 103 nM and the IC50 [6] was 392 nM. It also gave a CI [7] of 0.95.

With CC(=O)Nc1cccc(-n2c(=O)n(C3CC3)c(=O)c3c(Nc4ccc(I)cc4F)n(C)c(=O)c(C)c32)c1 [TRAMETINIB] the IC50 [8] was 30 nM, the IC50 [9] was 30 nM and the IC50 [10] was 1 nM. For the same compound, the IC50 [11] was 1 nM, the IC50 [12] was 10 nM and the IC50 [13] was 50 nM. It also gave an IC50 [14] of 72 nM, an IC50 [15] of 40 nM and a CI [16] of 0.39. The CI [17] was 0.84, the CI [18] was 0.95 and the CI [19] was 0.17. For the same compound, the CI [20] was 0.57 and the CI [21] was 0.73.
